Earlier results in patent US20070269386A1, “New product and use and manufacture thereof” (priority 2006, published 2007).

System: adult

Structure (SMILES): CN1CCCC1c1cccnc1 (stereo not shown) [nicotine, 3-(1-methyl-2-pyrrolidinyl)-pyridine]
- single dose that may kill an adult: Approximately 40 milligrams
